From US4327097A, “Novel penicillins” (Toyama Chemical Co., Ltd., priority 1974, dated 1982)
Converted amounts (≈) assume the structure as drawn.

What was measured:
[1] = system: β-lactamase, Pseudomonas aeruginosa GN 238; assay: Resistant activity against β-lactamase, iodometric assay; type: biochemical; settings: β-lactamase from Pseudomonas aeruginosa GN 238; Potassium Penicillin G = 100
Description: (3) Resistant activity against β-lactamase, Pseudomonas aerugionsa GN 238:
The resistant activity of each compound against β-lactamase was measured in the manner described below.
β-Lactamase was prepared from Pseudomonas aeruginosa GN 238. This microorganism was cultured in 100 ml of a medium containing 2 g of yeast extract, 10 g of polypeptone, 2 g of glucose, 7 g of disodium hydrogen phosphate, 2 g of potassium dihydrogen phosphate, 1.2 g of ammonium sulfate and 0.4 g of magnesium sulfate, per liter, in a 500-ml Erlenmeyer flask for 6 hrs. at 37° C. with shaking. The resulting cells were collected by centrifugation (5,000 r.p.m.×10 min.), washed three times with 0.1 M phosphate buffer (pH 7.0). Subsequently, the cells were subjected to sonication (20 KHz, 20 min.) and then centrifuged at 15,000 r.p.m. for 60 min. By using the supernatant of enzyme fluid, the resistance of each compound against β-lactamase was determined by the iodometric assay method. Each numeral shown in Table 7 is a relative activity value calculated by assuming as 100 the activity of the control Potassium Penicillin G.

[2] = system: Escherichia coli; assay: MIC against clinical isolates; type: cell-based; settings: Table 5-2, clinical isolate; unit assumed
[3] = system: Shigella sonnei; assay: MIC against clinical isolates; type: cell-based; settings: Table 5-5, clinical isolate; unit assumed
Description: (§1) The minimum inhibitory concentration (MIC) was determined by the plate method disclosed in "Chemotherapy" (Japan), Vol. 16, (1968), pages 98-99. The culture medium used was a Heart infusion agar (pH 7.4). The number of the cells per plate used in the inoculum was 10^4 (10^6 cells/ml).
(§2) MIC was determined in the same manner as in the preceding paragraph (1).

[4] = system: Shigella flexneri; assay: MIC against clinical isolates; type: cell-based; settings: Table 5-5, clinical isolate; unit assumed
Description: as §1, §2

[5] = system: Proteus morganii; assay: MIC against clinical isolates; type: cell-based; settings: Table 5-6, clinical isolate; unit assumed
[6] = system: Proteus mirabilis; assay: MIC against clinical isolates; type: cell-based; settings: Table 5-6, clinical isolate; unit assumed
[7] = system: Staphylococcus aureus; assay: MIC against clinical isolates; type: cell-based; settings: Table 5-1, clinical isolate; unit assumed
[8] = system: Pseudomonas aeruginosa; assay: MIC against clinical isolates; type: cell-based; settings: Table 5-3, clinical isolate; unit assumed
[9] = biological target: β-lactamase, Escherichia freundii GN 346 (Citrobacter freundii, UniProt Q46041); assay: Resistant activity against β-lactamase, iodometric assay; type: biochemical; settings: control Cephalorizine = 100
β-lactamase, Escherichia freundii GN 346, sequence (Q46041 entry or part of it): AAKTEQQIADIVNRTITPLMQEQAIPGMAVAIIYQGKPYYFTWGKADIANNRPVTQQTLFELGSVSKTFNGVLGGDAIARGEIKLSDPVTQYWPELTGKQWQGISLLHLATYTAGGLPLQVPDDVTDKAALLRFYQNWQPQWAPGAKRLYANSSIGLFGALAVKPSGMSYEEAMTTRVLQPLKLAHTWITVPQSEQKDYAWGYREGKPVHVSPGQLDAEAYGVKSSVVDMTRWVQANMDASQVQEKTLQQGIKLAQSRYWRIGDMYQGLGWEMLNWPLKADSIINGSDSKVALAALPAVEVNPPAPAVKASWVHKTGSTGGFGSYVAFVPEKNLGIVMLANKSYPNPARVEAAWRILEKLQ
Description: (§3) (4) Resistant activity of each cephalosporin compound against β-lactamase, Proteus vulgaris GN 76 and Escherichia freundii GN 346:
(§4) The resistant activity of each cephalosporin compound against β-lactamase was measured in the manner described below.
(§5) β-lactamase was prepared from Proteus vulgaris GN 76 and Escherichia freundii GN 346. 10 ml of an overnight culture in Heart Infusion broth was diluted with 100 ml of a medium containing 2 g of yeast extract, 10 g of polypeptone, 2 g of glucose, 7 g of disodium hydrogen phosphate, 2 g of potassium dihydrogen phosphate, 1.2 g of ammonium sulfate and 0.4 g of magnesium sulfate, per liter, and incubated with shaking at 37° C. After incubation of 2 hrs, Penicillin G (50 μg/ml) was added as the inducer, and further incubated for 2 hrs. The resulting cells were collected by centrifugation (5,000 r.p.m.×10 min.) and washed two times with 0.1 M phosphate buffer (pH 7.0). Subsequently, the cells were subjected to sonication (20 KHz, 5 min.) and then centrifuged at 15,000 r.p.m. for 60 min. By using the supernatant of enzyme fluid, the stability of each compound against β-lactamase was determined by the iodometric assay method. Each numeral shown in Table 7-2 is a relative activity value calculated by assuming as 100 the activity of the control Cephalorizine.

[10] = biological target: T1, β-lactamase, Proteus vulgaris GN 76 (Proteus vulgaris, UniProt P52664); assay: as above; type: biochemical; settings: control Cephalorizine = 100
T1 construct: By using the supernatant of enzyme fluid; endogenous in cells; host or cells: Proteus vulgaris GN 76 (penicillin G-induced cells, sonicated, 15,000 r.p.m. supernatant)
T1 sequence (P52664 30-300): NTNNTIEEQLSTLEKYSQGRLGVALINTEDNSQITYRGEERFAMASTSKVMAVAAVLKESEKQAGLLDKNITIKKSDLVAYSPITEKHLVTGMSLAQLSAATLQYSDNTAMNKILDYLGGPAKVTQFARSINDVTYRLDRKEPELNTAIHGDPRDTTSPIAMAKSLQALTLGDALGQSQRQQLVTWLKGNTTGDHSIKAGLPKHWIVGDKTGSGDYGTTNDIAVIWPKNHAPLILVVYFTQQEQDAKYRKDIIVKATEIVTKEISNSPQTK
Description: as §3, §4, §5

[11] = system: Pseudomonas aeruginosa I.F.O.; assay: MIC, plate method, standard strains; type: cell-based; settings: unit assumed; for MIC Pseudomonas aeruginosa I.F.O.: Table 4, standard strain
Description: as §1

[12] = system: Escherichia coli NIHJ; assay: MIC, plate method, standard strains; type: cell-based; settings: unit assumed; for MIC Escherichia coli NIHJ: Table 4, standard strain
Description: as §1

[13] = system: Proteus vulgaris 3027; assay: MIC, plate method, standard strains; type: cell-based; settings: unit assumed
Description: as §1

[14] = system: Staphylococcus aureus 209p; assay: MIC, plate method, standard strains; type: cell-based; settings: unit assumed
Description: as §1

[15] = system: Klebsiella pneumoniae; assay: MIC, plate method, standard strains; type: cell-based; settings: unit assumed
Description: as §1

For `CC1(C)S[C@@H]2[C@H](NC(=O)Cc3ccccc3)C(=O)N2[C@H]1C(=O)O` [Potassium Penicillin G, reference compound], the “Relative activity (%), resistant activity against β-lactamase” value [1] was 100%.

`CC1(C)S[C@@H]2[C@H](NC(=O)[C@H](N)c3ccccc3)C(=O)N2[C@H]1C(=O)O` [Sodium Ampicillin, reference compound] was tested, and the MIC Escherichia coli GN 3435 [2] was 3.13 µg/mL, the MIC Escherichia coli GN 3452 [2] was 6.25 µg/mL and the MIC Escherichia coli GN 3481 [2] was 6.25 µg/mL. For the same molecule, the MIC Escherichia coli K-1 [2] was 6.25 µg/mL, the MIC Escherichia coli K-2 [2] was 6.25 µg/mL and the MIC Shigella sonnei JS 11232 [3] was > 200 µg/mL. The MIC Shigella sonnei JS 11755 [3] was 6.25 µg/mL, the MIC Shigella flexneri JS 11839 [4] was 1.57 µg/mL and the MIC Proteus morganii [5] was < 1.57 µg/mL. For the same molecule, the MIC Proteus mirabilis [6] was < 1.57 µg/mL, the MIC Staphylococcus aureus MS 8588 [7] was 6.25 µg/mL and the MIC Staphylococcus aureus MS 8596 [7] was 1.56 µg/mL. It also gave an MIC Staphylococcus aureus MS 8684 [7] of 1.56 µg/mL and an MIC Staphylococcus aureus MS 8713 [7] of 3.13 µg/mL.

In the case of `CC1(C)S[C@@H]2[C@H](NC(=O)C(C(=O)O)c3ccccc3)C(=O)N2[C@H]1C(=O)O` (stereo partly drawn) [Sodium Carbenicillin, reference compound], the MIC Escherichia coli GN 3435 [2] is reported as 6.25 µg/mL, the MIC Escherichia coli GN 3452 [2] is reported as 12.5 µg/mL and the MIC Escherichia coli GN 3481 [2] is reported as 6.25 µg/mL. It also gave an MIC Escherichia coli K-1 [2] of 6.25 µg/mL, an MIC Escherichia coli K-2 [2] of 6.25 µg/mL and an MIC Escherichia coli K-4 [2] of 12.5 µg/mL. For the same molecule, the MIC Shigella sonnei JS 11232 [3] was > 200 µg/mL, the MIC Shigella sonnei JS 11755 [3] was 12.5 µg/mL and the MIC Shigella flexneri JS 11215 [4] was > 200 µg/mL. For the same molecule, the MIC Shigella flexneri JS 11839 [4] was 12.5 µg/mL, the “Relative activity (%), resistant activity against β-lactamase” value [1] was 116% and the MIC Pseudomonas aeruginosa GN 383 [8] was 50 µg/mL. For the same molecule, the MIC Staphylococcus aureus F-1 [7] was 6.25 µg/mL, the MIC Staphylococcus aureus F-2 [7] was 3.13 µg/mL and the MIC Staphylococcus aureus F-3 [7] was 3.13 µg/mL. The MIC Staphylococcus aureus F-4 [7] was 12.5 µg/mL, the MIC Staphylococcus aureus MS 8588 [7] was 6.25 µg/mL and the MIC Staphylococcus aureus MS 8596 [7] was 6.25 µg/mL. The MIC Staphylococcus aureus MS 8684 [7] was 6.25 µg/mL and the MIC Staphylococcus aureus MS 8713 [7] was 6.25 µg/mL.

With `CC1=C(C(=O)O)N2C(=O)[C@@H](NC(=O)[C@H](N)c3ccccc3)[C@H]2SC1` [Sodium Cephalexin, reference compound] the “Relative activity (%) against β-lactamase, E. freundii GN 346” value [9] was 29% and the “Relative activity (%) against β-lactamase, Pr. vulgaris GN 76” value [10] was 150%.

Molecule `CC1(C)S[C@@H]2[C@H](NC(=O)C(c3ccccc3)S(=O)(=O)O)C(=O)N2[C@H]1C(=O)O` (stereo partly drawn) [Sodium Sulbenicillin, reference compound] has an MIC Escherichia coli GN 3435 [2] of 6.25 µg/mL, an MIC Escherichia coli GN 3452 [2] of 12.5 µg/mL and an MIC Escherichia coli GN 3481 [2] of 12.5 µg/mL. For the same molecule, the MIC Escherichia coli K-1 [2] was 6.25 µg/mL, the MIC Escherichia coli K-2 [2] was 12.5 µg/mL and the MIC Escherichia coli K-4 [2] was 6.25 µg/mL. The MIC Shigella sonnei JS 11232 [3] was > 200 µg/mL, the MIC Shigella sonnei JS 11755 [3] was > 200 µg/mL and the MIC Shigella flexneri JS 11215 [4] was > 200 µg/mL. For the same molecule, the MIC Shigella flexneri JS 11839 [4] was 12.5 µg/mL, the “Relative activity (%), resistant activity against β-lactamase” value [1] was 50% and the MIC Staphylococcus aureus F-1 [7] was 6.25 µg/mL. It also gave an MIC Staphylococcus aureus F-3 [7] of 6.25 µg/mL and an MIC Staphylococcus aureus F-4 [7] of 6.25 µg/mL.

`CC1(C)SC2C(NC(=O)C(NC(=O)N3CC(=O)NC(=O)C3)c3ccccc3)C(=O)N2C1C(=O)O` (stereo not drawn) [compound 59] was tested, and the MIC Pseudomonas aeruginosa I.F.C ([11]; Table 3, standard strain) was 25 µg/mL (≈ 51.1 µM), the MIC Esche--richin coil NIHJ ([12]; Table 3, standard strain) was < 1.57 µg/mL and the MIC Proteus vulgaris 3027 ([13]; Table 3, standard strain) was 3.13 µg/mL (≈ 6.39 µM). The MIC Staphylococcus aureus 209p ([14]; Table 3, standard strain, Heart infusion agar pH 7.4) was < 1.57 µg/mL and the MIC Klebsiella pneumoniae ([15]; Table 3, standard strain) was 200 µg/mL (≈ 409 µM).

With `CC(=O)OCC1=C(C(=O)O)N2C(=O)[C@@H](NC(=O)Cc3cccs3)[C@H]2SC1` [drawing 248, reference compound] the MIC Pseudomonas aeruginosa I.F.O. [11] was > 200 µg/mL, the MIC Escherichia coli NIHJ [12] was < 1.57 µg/mL and the MIC Proteus vulgaris 3027 ([13]; Table 4, standard strain) was 100 µg/mL (≈ 252 µM). For the same molecule, the MIC Staphylococcus aureus 209p ([14]; Table 4, standard strain) was < 1.57 µg/mL and the MIC Klebsiella pneumoniae ([15]; Table 4, standard strain) was < 1.57 µg/mL.

In the case of `O=C(Cc1cccs1)N[C@@H]1C(=O)N2C(C(=O)[O-])=C(C[n+]3ccccc3)CS[C@H]12` [drawing 250, reference compound], the MIC Pseudomonas aeruginosa I.F.O. [11] is reported as 200 µg/mL (≈ 481 µM), the MIC Escherichia coli NIHJ [12] is reported as > 3.13 µg/mL and the MIC Proteus vulgaris 3027 ([13]; Table 4, standard strain) is reported as 200 µg/mL (≈ 481 µM). The MIC Staphylococcus aureus 209p ([14]; Table 4, standard strain) was < 1.57 µg/mL and the MIC Klebsiella pneumoniae ([15]; Table 4, standard strain) was 3.13 µg/mL (≈ 7.53 µM).
